We go through four compounds from paper PMC4205912, “Sea foam as a source of fungal inoculum for the isolation of biologically active natural products” (Mycology, 2014).

One assay concerns MRSA ATCC 33591. Nature of the assay: microbroth antibiotic susceptibility testing, MRSA. Format: cell-based, methicillin-resistant Staphylococcus aureus. The settings on record: triplicate, averaged, 22 h at 37°C; for IC50 / MIC: Staphylococcus aureus; for IC50: read-out: MRSA IC50; for MIC: read-out: MRSA MIC. The method, then:
(§1) All microbroth antibiotic susceptibility testing was carried out in triplicate in 96-well plates in accordance with Clinical Laboratory Standards Institute testing standards (NCCLS, [2003]) using the following pathogens: MRSA ATCC 33591 (MRSA), S. warneri ATCC 17917, VRE EF379 (VRE), Pseudomonas aeruginosa ATCC 14210, Proteus vulgaris ATCC 12454, and Candida albicans ATCC 14035. Extract fractions were assayed at 250 µg/mL while pure compounds were serially diluted to generate a range of 12 concentrations (128–0.0625 µg/mL) in a final well volume concentration of 2% DMSO(aq). […] The optical density of the plate was recorded using a Thermo Scientific Varioskan Flash plate reader at 600 nm at time zero and then again after incubation of the plates for 22 h at 37°C. After subtracting the time zero OD600 from the final reading, the percentages of microorganism survival relative to vehicle control wells were calculated.
On the technique in general: Dilution methods test growth across graded concentrations, often in twofold steps.

A further assay relates to VRE EF379. Nature of the assay: microbroth antibiotic susceptibility testing, VRE. Format: cell-based, vancomycin-resistant Enterococcus faecium. The settings on record: triplicate, averaged, 22 h at 37°C; for IC50 / MIC: Enterococcus, VRE; for IC50: read-out: VRE IC50; for MIC: read-out: VRE MIC. The protocol: as §1
The test system of assay [1] is adult human epidermal keratinocytes (HEKa). Nature of the assay: cytotoxicity assay (Alamar blue), keratinocytes. Format: cell-based. Conditions: HeKa cells, 24 h; for IC50: Homo sapiens, read-out: Keratinocyte IC50. The protocol:
(§2) Human foreskin BJ fibroblast cells (ATCC CRL-2522), adult human epidermal keratinocytes (HEKa), and human breast adenocarcinoma cells (ATCC HTB-26) were grown to 80% confluency (growth conditions are provided in Supplementary Materials and Methods), the cells were counted, diluted, and plated into treated 96-well cell culture plates. The BJ fibroblast and HEKa cells were plated at a cell density of 10,000 cells per well and the HTB-26 cells were plated at cell density of 5000 cells per well in 90 µL of respective growth medium (without the addition of antibiotics) and incubated for 24 h to allow cells to adhere to the plates before treatment. Pure compounds were tested in triplicate in serial dilutions of eight concentrations ranging from 128 µg/mL to 1 µg/mL per well (final well volume of 100 µL, 1% DMSO per well). Each of the cell lines were incubated at 37°C in a humidified atmosphere of 5% CO2; the BJ fibroblast and HEKa cells for 24 h and the HTB-26 cells for 72 h. Each plate contained four uninoculated positive controls, four untreated negative controls, and one column containing a concentration range of zinc pyrithione or doxorubicin. Alamar blue was added, 24 h after the treatment, and fluorescence was monitored using a Thermo Scientific Varioskan Flash plate reader at 560/12 excitation, 590 nm emission both at time zero and 4 h after Alamar blue addition. The inferred percentage of cell viability relative to vehicle control wells were calculated after subtracting the time zero emission 590 nm measurement from the final reading and the IC50 was determined.
In general terms: Alamar Blue is a resazurin reagent that responds to reducing activity.

For assay [2], the system named is Human foreskin BJ fibroblast cells (ATCC CRL-2522). The assay can be described thus: cytotoxicity assay (Alamar blue), fibroblasts. The class given is cell-based. Conditions: Homo sapiens; BJ cells, 24 h; read-out: Fibroblast IC50. The method, then: as §2
For assay [3], the system named is Pseudomonas aeruginosa ATCC 14210. Nature of the assay: microbroth antibiotic susceptibility testing, P. aeruginosa. The class given is cell-based. Conditions: triplicate, averaged, 22 h at 37°C; for IC50 / MIC: Pseudomonas aeruginosa, ATCC14210. The protocol: as §1
The test system of assay [4] is erythropoietin gene expression. Further details: method as in Cai et al. [1998]. Conditions: at a concentration of 1–1.6 µM; ref Cai et al. [1998]; cited from earlier work.
The subject of assay [5] is Candida albicans ATCC 14035. The assay can be described thus: microbroth susceptibility testing, C. albicans. Format: cell-based. The settings on record: for IC50 / MIC: Candida albicans, ATCC14035. The protocol:
as §1

The next assay deals with S. warneri ATCC 17917. The assay can be described thus: microbroth antibiotic susceptibility testing, S. warneri. The class given is cell-based. Conditions: triplicate, averaged, 22 h at 37°C; for IC50 / MIC: Staphylococcus warneri, ATCC17917; for IC50: read-out: S. warneri IC50; for MIC: read-out: S. warneri MIC. The method, then: as §1
In assay [6] the test system is Proteus vulgaris ATCC 12454. The assay can be described thus: microbroth antibiotic susceptibility testing, P. vulgaris. The settings on record: triplicate, averaged, 22 h at 37°C; for IC50 / MIC: Proteus vulgaris, ATCC12454. The class given is cell-based. The protocol: as §1, with “14035.” for “14035. Extract fractions were assayed at 250 µg/mL while pure compounds were serially diluted to generate a range of 12 concentrations (128–0.0625 µg/mL) in a final well volume concentration of 2% DMSO(aq).”

Another assay deals with stromelysin. On the set-up: method as in Harris et al. [1993]. Conditions: ref Harris et al. [1993]; read-out: IC50, inhibition of cleavage of β-casein by stromelysin; cited from earlier work.
Assay [7] deals with adult human epidermal keratinocytes (HEKa). Nature of the assay: cytotoxicity assay (Alamar blue), keratinocytes. The class given is cell-based. The settings on record: HeKa cells, 24 h.
The mark [8] stands for this setting: triplicate, averaged, 22 h at 37°C.

One may read the IC50 as the concentration needed to halve the response being measured. By MIC is commonly meant the least concentration at which growth counts as inhibited. What is called pIC50 is the negative decadic logarithm of the IC50, by convention in mol/L.

pIC50: −log10 of the molar value. Values after ≈ are worked out from the molar mass of the structure shown.

Turning to `Cc1cc(=O)c(O)cc2c1C[C@H]1CC(C)(C)/C=C/C[C@@]3(C)Oc4cc(O)cc(C)c4C[C@@H]3C[C@H](O)[C@]1(C)O2` [Epolone A, epolone A], the IC50 in the assay on MRSA ATCC 33591 is 48 µg/mL (≈ 92.2 µM); with VRE EF379, 44 µg/mL (≈ 84.5 µM); in assay [1], 13 µg/mL (≈ 25 µM); in assay [2] it was 14 µg/mL (≈ 26.9 µM); in [3], over 128 µg/mL; in assay [5] (setting [8]), over 64 µg/mL. Moreover, the half-inhibitory concentration (IC50) was 33 µg/mL (≈ 63.4 µM) in the assay with S. warneri ATCC 17917 and over 64 µg/mL in assay [6]. Besides, the MIC in the assay with MRSA ATCC 33591 is 64 µg/mL (≈ 123 µM); in the assay on VRE EF379, over 64 µg/mL; in [3], over 128 µg/mL; in assay [5] (setting [8]), over 64 µg/mL; in the assay on S. warneri ATCC 17917 it was 64 µg/mL (≈ 123 µM); in [6] it was over 64 µg/mL. Further, in [4], the “induction of erythropoietin gene expression” value (“induction” for short) is “five-fold”.
As for `C/C1=C\C(C)(C)/C=C/C[C@@]2(C)Oc3cc(O)c(=O)cc(C)c3CC2C[C@@H](O)C1` (some centres unmarked) [Epolone B, epolone B], the IC50 with MRSA ATCC 33591 is 48 µg/mL (≈ 125 µM); in the assay with VRE EF379, 52 µg/mL (≈ 135 µM); in assay [1] it was 50 µg/mL (≈ 130 µM); in [2] it was over 128 µg/mL; in [3] it was over 128 µg/mL; in [5] (setting [8]), 43 µg/mL (≈ 112 µM). The 50% inhibitory concentration (IC50) in [6] was over 64 µg/mL. The minimal inhibitory concentration (MIC) in the assay with MRSA ATCC 33591 was 64 µg/mL (≈ 166 µM); in the assay on VRE EF379, over 64 µg/mL; in assay [3] it was over 128 µg/mL; in assay [5] (setting [8]), 64 µg/mL (≈ 166 µM); in assay [6], over 64 µg/mL. Besides, the “induction” value in [4] is given as “five-fold”. Moreover, in assay [5], the “effect against C. albicans” value is listed as “inhibitory effect”.
Regarding `Cc1cc(=O)c(O)cc2c1C[C@H]1CC(C)(C)/C=C/C[C@@]3(C)Oc4cc(O)c(=O)cc(C)c4C[C@@H]3C[C@H](O)[C@]1(C)O2` [Pycnidione, pycnidione], the IC50 in the assay on MRSA ATCC 33591 was 12 µg/mL (≈ 21.9 µM); in the assay on VRE EF379 it was 46 µg/mL (≈ 83.8 µM); in assay [1], 15 µg/mL (≈ 27.3 µM); in assay [2] it was 11 µg/mL (≈ 20 µM); in assay [3], over 128 µg/mL; in assay [5] (setting [8]), 5 µg/mL (≈ 9.11 µM). For the same compound, the 50% inhibitory concentration (IC50) in the assay on S. warneri ATCC 17917 was determined as 12 µg/mL (≈ 21.9 µM); in assay [6], 30 µg/mL (≈ 54.7 µM). Moreover, the MIC in the assay on MRSA ATCC 33591 was 16 µg/mL (≈ 29.2 µM); in the assay with VRE EF379 it was 64 µg/mL (≈ 117 µM); in assay [3], over 128 µg/mL; in assay [5] (setting [8]), 8 µg/mL (≈ 14.6 µM); in the assay on S. warneri ATCC 17917 it was 64 µg/mL (≈ 117 µM); in [6], 64 µg/mL (≈ 117 µM). Further, the “induction” value in assay [4] was “five-fold”. In the assay with stromelysin, the negative logarithm of the IC50 (pIC50) was 4.51.
On to coniothyrione, for which, in the assay on MRSA ATCC 33591, the “MRSA IC50” value is reported as 8 µg/mL and the “MRSA MIC” value is 16 µg/mL. Moreover, in the assay on VRE EF379, the “VRE IC50” value worked out at 4 µg/mL and the “VRE MIC” value amounted to 16 µg/mL. Further, in assay [1], the “Keratinocyte IC50” value is 5 µg/mL. In addition, in assay [3], the “P. aeruginosa IC50” value is given as over 64 µg/mL and the “P. aeruginosa MIC” value is listed as over 64 µg/mL. Further, the “Keratinocyte MIC” value in [7] came out at 64 µg/mL. Besides, in assay [5] (setting [8]), the “C. albicans IC50” value is listed as over 64 µg/mL and the “C. albicans MIC” value was over 64 µg/mL. For the same compound, in the assay with S. warneri ATCC 17917, the “S. warneri IC50” value is on record as 12 µg/mL and the “S. warneri MIC” value was 16 µg/mL. In addition, in [6], the “P. vulgaris IC50” value is given as 30 µg/mL and the “P. vulgaris MIC” value is reported as over 64 µg/mL.
